As usually defined, the IC50 is the concentration that gives 50% inhibition.

The experiment deals with T1, mPGES-1 (microsomal prostaglandin E synthase-1) (Homo sapiens, UniProt O14684).
T1 construct: gene PTGES
T1 sequence (O14684 1-152): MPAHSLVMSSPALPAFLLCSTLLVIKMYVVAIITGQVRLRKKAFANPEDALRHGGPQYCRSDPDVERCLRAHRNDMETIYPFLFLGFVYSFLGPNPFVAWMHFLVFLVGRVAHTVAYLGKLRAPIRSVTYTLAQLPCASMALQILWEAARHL
The experiment can be described thus: CETSA in U87 cell lysates (temperature- and dose-dependent), plus enzyme activity inhibition IC50. In kind it is cell-based.

Take `O=C(/C=C/c1ccc(O)cc1)c1ccc(O)cc1O` [ISL, isoliquiritigenin]: the IC50 amounted to 17.4 µM.

The record behind these values is paper PMC6704644 (Journal of Experimental & Clinical Cancer Research : CR, 2019).
